The target in assay [1] is Tyrosine-protein kinase Fgr (Homo sapiens) (UniProt P09769). Put plainly: Inhibition of human FGR at 18.6 nM by HotSpot assay relative to control.
For assay [2], the target named is T1, Dual serine/threonine and tyrosine protein kinase (Homo sapiens) (UniProt Q6XUX3).
T1 sequence (whole entry): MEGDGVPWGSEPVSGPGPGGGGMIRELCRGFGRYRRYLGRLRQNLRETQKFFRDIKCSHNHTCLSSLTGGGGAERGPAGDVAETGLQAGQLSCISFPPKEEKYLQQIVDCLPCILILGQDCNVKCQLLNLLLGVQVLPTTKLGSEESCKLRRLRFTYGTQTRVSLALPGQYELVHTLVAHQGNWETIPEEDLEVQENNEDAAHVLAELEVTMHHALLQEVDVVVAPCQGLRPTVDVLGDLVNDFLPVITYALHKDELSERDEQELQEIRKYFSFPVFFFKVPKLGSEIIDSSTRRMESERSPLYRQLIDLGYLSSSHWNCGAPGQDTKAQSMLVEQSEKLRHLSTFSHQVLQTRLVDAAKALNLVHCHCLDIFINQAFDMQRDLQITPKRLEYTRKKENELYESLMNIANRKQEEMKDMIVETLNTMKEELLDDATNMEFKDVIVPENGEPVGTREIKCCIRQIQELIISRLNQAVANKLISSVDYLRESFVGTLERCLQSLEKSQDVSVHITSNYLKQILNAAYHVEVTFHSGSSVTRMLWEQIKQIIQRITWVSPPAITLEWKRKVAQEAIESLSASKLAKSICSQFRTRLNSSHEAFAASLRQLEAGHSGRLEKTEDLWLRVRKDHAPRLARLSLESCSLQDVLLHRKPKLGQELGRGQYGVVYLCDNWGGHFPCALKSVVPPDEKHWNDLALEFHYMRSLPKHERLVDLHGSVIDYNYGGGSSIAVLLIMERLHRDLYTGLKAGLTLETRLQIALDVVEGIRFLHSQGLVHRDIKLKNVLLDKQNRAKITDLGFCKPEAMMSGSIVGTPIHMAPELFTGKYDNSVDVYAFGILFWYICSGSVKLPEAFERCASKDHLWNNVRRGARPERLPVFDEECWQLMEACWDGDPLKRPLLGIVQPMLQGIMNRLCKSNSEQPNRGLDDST
As to the kind of experiment: Inhibition of human RIPK5 at 18.6 nM by HotSpot assay relative to control.

Assay [3] deals with T2, Ephrin type-A receptor 3 (Homo sapiens) (UniProt P29320).
T2 sequence (whole entry): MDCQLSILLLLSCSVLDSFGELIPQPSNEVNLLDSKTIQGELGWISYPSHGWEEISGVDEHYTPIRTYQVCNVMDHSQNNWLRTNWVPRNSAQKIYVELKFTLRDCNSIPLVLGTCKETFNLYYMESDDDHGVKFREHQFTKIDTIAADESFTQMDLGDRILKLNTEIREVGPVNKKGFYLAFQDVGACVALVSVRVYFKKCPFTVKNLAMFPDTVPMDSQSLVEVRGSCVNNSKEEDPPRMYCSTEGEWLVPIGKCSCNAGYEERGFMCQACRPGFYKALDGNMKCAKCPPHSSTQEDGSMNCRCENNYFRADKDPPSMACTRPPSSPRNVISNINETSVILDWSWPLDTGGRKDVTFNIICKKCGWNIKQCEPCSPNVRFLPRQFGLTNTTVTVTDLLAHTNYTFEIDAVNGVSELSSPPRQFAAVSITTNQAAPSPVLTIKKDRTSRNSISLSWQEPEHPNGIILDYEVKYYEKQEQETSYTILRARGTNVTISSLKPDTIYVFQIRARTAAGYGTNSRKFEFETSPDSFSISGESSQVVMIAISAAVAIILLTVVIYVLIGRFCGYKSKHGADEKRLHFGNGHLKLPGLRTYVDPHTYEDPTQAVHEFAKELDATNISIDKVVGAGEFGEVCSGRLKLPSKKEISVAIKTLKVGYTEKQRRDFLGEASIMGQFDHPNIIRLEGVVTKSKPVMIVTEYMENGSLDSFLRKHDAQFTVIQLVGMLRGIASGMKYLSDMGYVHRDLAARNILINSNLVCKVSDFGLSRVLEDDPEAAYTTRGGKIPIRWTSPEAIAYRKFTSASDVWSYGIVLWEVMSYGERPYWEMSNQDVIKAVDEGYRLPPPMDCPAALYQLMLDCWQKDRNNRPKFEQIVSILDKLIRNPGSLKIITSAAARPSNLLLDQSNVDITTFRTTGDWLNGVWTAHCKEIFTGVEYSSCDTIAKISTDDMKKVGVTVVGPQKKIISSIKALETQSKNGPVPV
Put plainly: Inhibition of human EPHA3 at 18.6 nM by HotSpot assay relative to control.

Assay [4] concerns the target T3, Inhibitor of nuclear factor kappa-B kinase subunit alpha (Homo sapiens) (UniProt O15111).
T3 sequence (whole entry): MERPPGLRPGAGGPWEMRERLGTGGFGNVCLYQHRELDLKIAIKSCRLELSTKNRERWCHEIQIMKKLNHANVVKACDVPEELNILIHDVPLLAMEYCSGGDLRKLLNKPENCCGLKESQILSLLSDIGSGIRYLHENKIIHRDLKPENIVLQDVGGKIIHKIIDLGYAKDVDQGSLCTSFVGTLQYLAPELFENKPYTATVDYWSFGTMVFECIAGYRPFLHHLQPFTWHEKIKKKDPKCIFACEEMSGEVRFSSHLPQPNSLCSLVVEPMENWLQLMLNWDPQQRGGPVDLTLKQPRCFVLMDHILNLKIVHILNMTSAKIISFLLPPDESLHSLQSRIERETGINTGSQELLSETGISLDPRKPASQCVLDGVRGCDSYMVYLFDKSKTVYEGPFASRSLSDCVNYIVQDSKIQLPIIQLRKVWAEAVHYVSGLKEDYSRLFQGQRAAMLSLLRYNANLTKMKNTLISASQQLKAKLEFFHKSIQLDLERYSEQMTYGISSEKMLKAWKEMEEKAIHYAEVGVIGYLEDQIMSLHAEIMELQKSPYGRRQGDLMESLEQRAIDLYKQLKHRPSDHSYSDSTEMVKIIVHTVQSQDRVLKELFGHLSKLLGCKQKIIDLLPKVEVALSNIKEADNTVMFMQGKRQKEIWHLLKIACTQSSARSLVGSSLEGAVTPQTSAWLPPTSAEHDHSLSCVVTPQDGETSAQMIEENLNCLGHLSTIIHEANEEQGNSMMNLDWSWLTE
Put plainly: Inhibition of human IKKa at 18.6 nM by HotSpot assay relative to control.

Assay [5] has as its target Platelet-derived growth factor receptor alpha (Homo sapiens) (UniProt P16234). Put plainly: Inhibition of human PDGFRa at 1.82 nM by HotSpot assay relative to control.
Assay [6] has as its target Cyclin-dependent kinase 1/cyclin B1 (Homo sapiens) (UniProt P06493+P14635). As to the kind of experiment: Inhibition of human CDK1/cyclin B at 1.82 nM by HotSpot assay relative to control. Format: protein-complex assay.
Assay [7] has as its target Aurora kinase B (Homo sapiens) (UniProt Q96GD4). As to the kind of experiment: Inhibition of human Aurora B at 1.82 nM by HotSpot assay relative to control.

The results in this text go back to ChEMBL document CHEMBL5653615 (J Biol Chem, 2013).

Sequence of Cyclin-dependent kinase 1/cyclin B1 (Homo sapiens) (P06493 whole entry, looked up): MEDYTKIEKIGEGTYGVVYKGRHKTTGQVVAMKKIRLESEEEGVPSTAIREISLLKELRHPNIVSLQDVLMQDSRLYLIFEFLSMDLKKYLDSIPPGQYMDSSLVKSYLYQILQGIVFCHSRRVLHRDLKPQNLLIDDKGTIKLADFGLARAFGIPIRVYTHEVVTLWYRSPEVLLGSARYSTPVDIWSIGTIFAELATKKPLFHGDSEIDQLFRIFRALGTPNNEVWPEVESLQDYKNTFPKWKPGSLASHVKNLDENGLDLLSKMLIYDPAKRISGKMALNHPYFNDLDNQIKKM
Sequence of Cyclin-dependent kinase 1/cyclin B1 (Homo sapiens) (P14635 whole entry, looked up): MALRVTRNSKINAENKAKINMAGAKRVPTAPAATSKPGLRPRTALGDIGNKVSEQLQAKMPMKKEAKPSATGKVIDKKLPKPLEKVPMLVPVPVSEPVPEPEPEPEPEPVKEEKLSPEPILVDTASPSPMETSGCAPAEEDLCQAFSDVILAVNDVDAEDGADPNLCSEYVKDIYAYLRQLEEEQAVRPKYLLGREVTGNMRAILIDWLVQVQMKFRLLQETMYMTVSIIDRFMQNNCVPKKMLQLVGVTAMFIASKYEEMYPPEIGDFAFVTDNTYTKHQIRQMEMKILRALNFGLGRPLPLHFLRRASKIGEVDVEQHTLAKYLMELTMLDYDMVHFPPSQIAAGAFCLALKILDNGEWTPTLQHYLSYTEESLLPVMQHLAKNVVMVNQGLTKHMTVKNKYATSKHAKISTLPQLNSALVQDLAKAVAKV
Sequence of Tyrosine-protein kinase Fgr (Homo sapiens) (P09769 2-529 limits assumed): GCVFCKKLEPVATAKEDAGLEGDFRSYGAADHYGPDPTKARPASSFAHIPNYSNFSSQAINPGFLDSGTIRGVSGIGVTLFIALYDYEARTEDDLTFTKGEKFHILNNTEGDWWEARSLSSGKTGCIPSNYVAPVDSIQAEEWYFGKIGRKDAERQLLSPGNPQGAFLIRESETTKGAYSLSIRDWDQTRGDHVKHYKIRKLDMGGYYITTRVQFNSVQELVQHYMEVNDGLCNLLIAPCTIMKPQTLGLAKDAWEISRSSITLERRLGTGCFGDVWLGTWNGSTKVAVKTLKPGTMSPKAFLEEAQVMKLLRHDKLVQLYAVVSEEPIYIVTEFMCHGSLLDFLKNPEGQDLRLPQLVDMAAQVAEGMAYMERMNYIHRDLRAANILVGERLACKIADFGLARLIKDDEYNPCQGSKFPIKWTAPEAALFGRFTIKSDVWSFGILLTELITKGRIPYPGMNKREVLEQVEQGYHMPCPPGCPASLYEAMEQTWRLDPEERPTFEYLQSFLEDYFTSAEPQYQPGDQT
Sequence of Platelet-derived growth factor receptor alpha (Homo sapiens) (P16234 whole entry): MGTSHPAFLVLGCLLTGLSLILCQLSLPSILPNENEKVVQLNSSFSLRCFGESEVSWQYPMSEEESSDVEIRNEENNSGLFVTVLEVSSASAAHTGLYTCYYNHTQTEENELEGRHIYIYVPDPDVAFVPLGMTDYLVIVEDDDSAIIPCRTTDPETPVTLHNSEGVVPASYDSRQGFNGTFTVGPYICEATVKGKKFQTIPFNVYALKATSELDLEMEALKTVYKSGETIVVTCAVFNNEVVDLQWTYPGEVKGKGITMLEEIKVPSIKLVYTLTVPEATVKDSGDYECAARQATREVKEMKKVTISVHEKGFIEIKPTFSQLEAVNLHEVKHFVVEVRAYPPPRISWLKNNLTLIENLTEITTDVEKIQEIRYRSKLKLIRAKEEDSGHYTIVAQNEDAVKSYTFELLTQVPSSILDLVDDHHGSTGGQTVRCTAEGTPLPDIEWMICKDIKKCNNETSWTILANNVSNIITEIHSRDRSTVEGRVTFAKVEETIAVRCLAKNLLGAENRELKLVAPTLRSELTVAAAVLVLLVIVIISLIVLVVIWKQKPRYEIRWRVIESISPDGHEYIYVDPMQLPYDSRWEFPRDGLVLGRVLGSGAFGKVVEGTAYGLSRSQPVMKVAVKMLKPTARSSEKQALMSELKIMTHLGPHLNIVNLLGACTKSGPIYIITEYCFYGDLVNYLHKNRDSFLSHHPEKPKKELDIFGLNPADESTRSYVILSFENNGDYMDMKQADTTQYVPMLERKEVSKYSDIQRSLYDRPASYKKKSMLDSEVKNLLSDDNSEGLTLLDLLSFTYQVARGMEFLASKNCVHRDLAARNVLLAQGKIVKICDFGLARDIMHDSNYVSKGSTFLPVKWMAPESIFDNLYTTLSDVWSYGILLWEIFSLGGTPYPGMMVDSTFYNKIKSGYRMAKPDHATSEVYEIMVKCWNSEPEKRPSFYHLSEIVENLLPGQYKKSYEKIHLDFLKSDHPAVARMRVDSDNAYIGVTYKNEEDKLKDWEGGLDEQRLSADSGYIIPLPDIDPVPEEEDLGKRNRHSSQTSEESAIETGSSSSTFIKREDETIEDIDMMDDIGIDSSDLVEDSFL
Sequence of Aurora kinase B (Homo sapiens) (Q96GD4 whole entry): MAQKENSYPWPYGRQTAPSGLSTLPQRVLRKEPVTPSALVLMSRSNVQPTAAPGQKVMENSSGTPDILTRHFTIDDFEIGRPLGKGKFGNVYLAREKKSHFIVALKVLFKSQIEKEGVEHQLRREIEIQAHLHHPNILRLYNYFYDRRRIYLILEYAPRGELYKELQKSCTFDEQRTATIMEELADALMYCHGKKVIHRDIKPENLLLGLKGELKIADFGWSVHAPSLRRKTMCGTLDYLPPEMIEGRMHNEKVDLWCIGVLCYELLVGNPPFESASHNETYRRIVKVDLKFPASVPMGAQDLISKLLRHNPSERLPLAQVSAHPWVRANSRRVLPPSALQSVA

The inhibition is the drop in the measured response relative to a control, in per cent. Turning to `C[C@]1(O)C[C@@H](c2nc(-c3ccc4ccc(-c5ccccc5)nc4c3)c3c(N)nccn32)C1`, the inhibition was -9.34% in assay [1], -0.63% in assay [2], 2.95% in assay [3] and 5.65% in assay [4].
Take `C[C@@]1(C(=O)Nc2ccc(F)nc2)CCCN1c1nc(Nc2cc(C3CC3)n[nH]2)c2cccn2n1`: the values for the inhibition in assay [5], in assay [6] and in assay [7] were 0.58%, 0.77% and -0.68%, respectively.
